Molecular target: T1, αvβ3 (vitronectin receptor) (Homo sapiens, UniProt P05106+P06756)
T1 construct: Human placenta or human platelet αvβ3 (0.1-0.3 mg/mL) in buffer T; from tissue; host or cells: human placenta or human platelets
Experiment: Solid-Phase [3H]-SK&F-107260 Binding to αvβ3
Details: human placenta or human platelet αvβ3; competition with 5.0 nM [3H]-SK&F-107260; Ki=IC50/(1+L/Kd)
Experimental: 0.1-0.2 μg of αvβ3 was added per well. The plates were incubated overnight at 4° C. At the time of the experiment, the wells were washed once with buffer A and were incubated with 0.1 mL of 3.5% bovine serum albumin in the same buffer for 1 hr at room temperature. Following incubation the wells were aspirated completely and washed twice with 0.2 mL buffer A.
Compound were dissolved in 100% DMSO to give a 2 mM stock solution, which was diluted with binding buffer (15 mM Tris-HCl (pH 7.4), 100 mM NaCl, 1 mM CaCl2, 1 mM MnCl2, 1 mM MgCl2) to a final compound concentration of 100 μM. This solution is then diluted to the required final compound concentration.
The plates were incubated for 1 hr at room temperature. Following incubation the wells were aspirated completely and washed once with 0.2 mL of ice cold buffer A in a well-to-well fashion.

T1 sequence (P06756 31-889 limits assumed): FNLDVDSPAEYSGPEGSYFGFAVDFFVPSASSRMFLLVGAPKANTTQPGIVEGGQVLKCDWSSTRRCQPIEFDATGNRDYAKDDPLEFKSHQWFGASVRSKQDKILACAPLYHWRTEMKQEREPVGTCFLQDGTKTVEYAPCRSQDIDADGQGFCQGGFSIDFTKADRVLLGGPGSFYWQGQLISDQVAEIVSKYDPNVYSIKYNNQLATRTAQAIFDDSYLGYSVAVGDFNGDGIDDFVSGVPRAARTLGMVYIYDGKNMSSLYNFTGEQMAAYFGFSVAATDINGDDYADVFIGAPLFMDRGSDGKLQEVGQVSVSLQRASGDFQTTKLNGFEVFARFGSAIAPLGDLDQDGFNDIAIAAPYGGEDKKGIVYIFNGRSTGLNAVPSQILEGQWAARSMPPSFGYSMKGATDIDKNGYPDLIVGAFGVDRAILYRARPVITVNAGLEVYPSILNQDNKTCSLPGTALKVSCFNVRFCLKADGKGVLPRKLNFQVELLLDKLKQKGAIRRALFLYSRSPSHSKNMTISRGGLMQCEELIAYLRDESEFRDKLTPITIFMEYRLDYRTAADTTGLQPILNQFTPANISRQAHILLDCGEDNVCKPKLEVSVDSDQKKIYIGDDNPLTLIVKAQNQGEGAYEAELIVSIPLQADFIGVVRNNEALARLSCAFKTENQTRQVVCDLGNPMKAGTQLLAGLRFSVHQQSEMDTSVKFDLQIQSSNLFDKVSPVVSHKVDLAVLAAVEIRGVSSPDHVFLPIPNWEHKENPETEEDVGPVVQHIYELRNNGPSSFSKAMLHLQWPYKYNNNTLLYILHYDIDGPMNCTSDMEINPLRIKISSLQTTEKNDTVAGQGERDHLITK
T1 sequence (P06756 891-1048 partner limits assumed): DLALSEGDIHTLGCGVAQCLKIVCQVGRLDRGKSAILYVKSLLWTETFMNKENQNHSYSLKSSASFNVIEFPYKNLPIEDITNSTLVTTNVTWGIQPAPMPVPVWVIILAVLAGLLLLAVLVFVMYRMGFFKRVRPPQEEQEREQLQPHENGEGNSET
T1 sequence (P05106 27-788): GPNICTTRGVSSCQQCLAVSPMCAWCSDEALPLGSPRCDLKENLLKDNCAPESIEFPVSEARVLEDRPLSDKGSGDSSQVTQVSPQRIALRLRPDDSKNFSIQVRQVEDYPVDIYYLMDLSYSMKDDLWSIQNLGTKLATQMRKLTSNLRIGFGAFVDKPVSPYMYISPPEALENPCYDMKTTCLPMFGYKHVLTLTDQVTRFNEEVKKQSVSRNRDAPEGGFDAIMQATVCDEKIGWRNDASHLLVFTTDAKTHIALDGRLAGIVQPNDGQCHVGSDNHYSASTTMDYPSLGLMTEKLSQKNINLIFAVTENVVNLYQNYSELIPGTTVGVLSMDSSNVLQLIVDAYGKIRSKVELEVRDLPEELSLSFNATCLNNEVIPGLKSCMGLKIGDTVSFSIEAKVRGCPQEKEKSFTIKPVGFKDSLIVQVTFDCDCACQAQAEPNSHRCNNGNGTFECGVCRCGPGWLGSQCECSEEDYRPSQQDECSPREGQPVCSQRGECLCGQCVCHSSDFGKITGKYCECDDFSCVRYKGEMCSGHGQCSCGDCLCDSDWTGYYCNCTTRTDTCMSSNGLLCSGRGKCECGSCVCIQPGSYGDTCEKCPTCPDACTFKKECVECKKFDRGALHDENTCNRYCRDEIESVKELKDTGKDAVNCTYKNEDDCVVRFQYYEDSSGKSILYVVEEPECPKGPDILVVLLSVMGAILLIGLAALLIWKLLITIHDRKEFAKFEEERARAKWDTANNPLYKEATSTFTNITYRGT

Ki: ~1.7 nM
SMILES: O=C(O)C[C@@H]1Cc2ccc(OCCc3ccc4c(n3)NCCC4)cc2Cc2ccccc21 [Example 1, (S)-10,11-dihydro-3-[2-(5,6,7,8-tetrahydro-1,8-naphthyridin-2-yl)-1-ethoxy]-5H-dibenzo[a,d]cycloheptene-10-acetic acid]

— patent publication US6495560B1, “Vitronectin receptor antagonist” (SmithKline Beecham Corporation, priority 1998, dated 2002)
